In patent publication US20250326748A1, “COMPOUNDS AND METHODS FOR MODULATING SPLICING” (REMIX THERAPEUTICS INC., priority 2022, published 2025):
Counter-ions that a name gives are not always drawn. Like-named read-outs stand apart in the source and are kept apart here.

Assays:
[1] = test system: K562 cells; test: Cell viability, Cell Titer Glo 2.0 assay, K562; details: 72 hours
[2] = test system: MYB mRNA; test: Splicing RT-qPCR assay, MYB canonical (CJ) and alternative (AJ) junction mRNA; assay type: cell-based, human; details: Homo sapiens; for IC50: canonical junction mRNA; for AC50: alternative junction mRNA, read-out: MYB AJ (AC50, increase in AJ mRNA)
Method: (§1) Compounds described herein were used to modulate RNA transcript abundance in cells. The expression of a target mRNA was measured by detecting the formation of an exon-exon junction in the canonical transcript (CJ). A compound mediated exon-inclusion event was detected by observing an increase in formation of a new junction with an alternative exon (AJ). Real-time qPCR assays were used to detect these splicing switches and interrogate the potency of various compounds towards different target genes. A high-throughput real time quantitative PCR (RT-qPCR) assay was developed to measure these two isoforms of the mRNA (CJ and AJ) for exemplary genes, such as HTT, SMN2, and MYB, together with a control housekeeping gene, GAPDH or GUSB or PPIA, used for normalization. Briefly, the A673 or K562 cell line was treated with various compounds described herein (e.g., compounds of Formula (D). After treatment, the levels of the HTT, MYB, or SMN2 mRNA targets were determined from each sample of cell lysate by cDNA synthesis followed by qPCR.
(§2) • Cells-to-CT 1-step kit: ThermoFisher A25602, Cells-to-CT lysis reagent: ThermoFisher 4391851C, TaqMan™ Fast Virus 1-Step Master Mix: ThermoFisher 4444436 • GAPDH: VIC-PL, ThermoFisher 4326317E (Assay: Hs99999905_m1)—used for K562/suspension cell lines • GUSB: VIC-PL, ThermoFisher 4326320E (Assay: Hs99999908_m1)—used for K562/suspension cell lines • PPIA: VIC-PL, ThermoFisher 4326316E (Assay: Hs99999904_m1)—used for A673/adherent cell lines
(§3) The A673 cell line was cultured in DMEM with 10% FBS. Cells were diluted with full growth media and plated in a 96-well plate (15,000 cells in 100 ul media per well). The plate was incubated at 37° C. with 5% CO2 for 24 hours to allow cells to adhere. An 11-point 3-fold serial dilution of the compounds was made in DMSO then diluted in media in an intermediate plate. Compounds were transferred from the intermediate plate to the cell plate with the top dose at a final concentration of 10 uM in the well. Final DMSO concentration was kept at or below 0.25%. The cell plate was returned to the incubator at 37° C. with 5% CO2 for an additional 24 hours.
(§4) The K562 cell line was cultured in IMDM with 10% FBS. For K562, cells were diluted with full growth media and plated in either a 96-well plate (50,000 cells in 50 uL media per well) or a 384-well plate (8,000-40,000 cells in 45 uL media per well). An 11-point 3-fold serial dilution of the compounds were made in DMSO then diluted in media in an intermediate plate. Compound was transferred from the intermediate plate to the cell plate with the top dose at a final concentration of 10 uM in the well. Final DMSO concentration was kept at or below 0.25%. Final volume was 100 uL for 96-well plate and 50 uL for 384-well plate. The cell plate was then placed in an incubator at 37° C. with 5% CO2 for 24 hours.
(§5) The cells were then gently washed with 50 uL-100 uL cold PBS before proceeding to addition of lysis buffer. 30 uL-50 μL of room temperature lysis buffer with DNAse I (and optionally RNAsin) was added to each well. Cells were shaken/mixed thoroughly at room temperature for 5-10 minutes for lysis to take place and then 3 uL-5 μL of room temperature stop solution was added and wells were shaken/mixed again. After 2-5 minutes, the cell lysate plate was transferred to ice for RT-qPCR reaction setup. The lysates could also be frozen at −80° C. for later use.
(§6) In some cases, a direct lysis buffer was used. An appropriate volume of 3× lysis buffer (10 mM Tris, 150 mM NaCl, 1.5%-2.5% Igepal and 0.1-1 U/uL RNAsin, pH 7.4) was directly added to either K562 or A673 cells in media and mixed by pipetting 3 times. The plates were then incubated at room temperature with shaking/rocking for 20-50 minutes to allow for lysis to take place. After this time, the cell lysate plate was transferred to ice to set up for the RT-qPCR reactions. The lysates could also be frozen at −80° C. for later use. […]

[3] = test system: SMN2 mRNA; test: Splicing RT-qPCR panel, SMN2 canonical junction (CJ) mRNA; assay type: cell-based, human; details: Homo sapiens, read-out: SMN2 CJ (decrease in CJ mRNA levels, IC50)
Method: as §1, §3, §4, §5
(§7) In some cases, a direct lysis buffer was used. An appropriate volume of 3× lysis buffer (10 mM Tris, 150 mM NaCl, 1.5%-2.5% Igepal and 0.1-1 U/uL RNAsin, pH 7.4) was directly added to either K562 or A673 cells in media and mixed by pipetting 3 times. The plates were then incubated at room temperature with shaking/rocking for 20-50 minutes to allow for lysis to take place. After this time, the cell lysate plate was transferred to ice to set up for the RT-qPCR reactions. The lysates could also be frozen at −80° C. for later use.
(§8) To set up 10 uL RT-qPCR reactions, cell lysates were transferred to 384-well qPCR plates containing the master mix according to the table below. The plates were sealed, gently vortexed, and spun down before the run. The volumes were adjusted accordingly in some instances where the reaction was carried in 20 μL. The table below summarizes the components of the RT-qPCR reactions:
(§9) The RT-qPCR reaction was performed using a QuantStudio (ThermoFisher) under the following fast cycling conditions. […]

[4] = test system: HTT mRNA; test: Splicing RT-qPCR assay, HTT canonical (CJ) and alternative (AJ) junction mRNA; assay type: cell-based, human; details: Homo sapiens; for IC50: canonical junction mRNA; for AC50: alternative junction mRNA, read-out: HTT AJ (AC50, increase in AJ mRNA)
Method: as §1, §2, §3, §4, §5, §6

[5] = test system: Target C mRNA; test: Splicing RT-qPCR panel, Target C canonical junction (CJ) mRNA; assay type: cell-based, human; details: Homo sapiens, read-out: Target C CJ (decrease in CJ mRNA levels, IC50)
Method: as §1, §3, §4, §5, §7, §8, §9

[6] = qPCR panel, read-out: MYB CJ (decrease in CJ mRNA levels, IC50)
[7] = RT-qPCR, A673 or K562 cells, 24 hours treatment
[8] = RT-qPCR, A673 or K562 cells, 24 hours treatment, read-out: MYB CJ (IC50, decrease in CJ mRNA)
[9] = 24 h, RT-qPCR, A673 or K562 cells, 24 hours treatment, read-out: HTT CJ (IC50, decrease in CJ mRNA)
[10] = qPCR panel, read-out: HTT CJ (decrease in CJ mRNA levels, IC50)

| SMILES | Effect on Cell Viability, K562 [1] | IC50 [2, 6] | AC50 [2, 7] | IC50 [2, 8] | IC50 [3] | IC50 [4, 9] | IC50 [4, 10] | AC50 [4, 7] | IC50 [5] |
| --- | --- | --- | --- | --- | --- | --- | --- | --- | --- |
| Cc1c(O)c(-c2ccc3c(Cl)c(N4C[C@H](C)N[C@@H](C)C4)cnc3n2)cc2cn(C)nc12 [Compound 394] | B (100-1000 nM) | < 0.1 µM | < 0.1 µM | < 0.1 µM | < 0.1 µM | 0.1 to 1 µM | 0.1 to 1 µM | 0.1 to 1 µM | 1 to 10 µM |
| COc1nc(-c2cc3cn(C)nc3c(C)c2O)nc2ncc(N3C[C@@H](C)N[C@@H](C)C3)cc12 [Compound 369] | B (100-1000 nM) | 0.1 to 1 µM | 0.1 to 1 µM | 0.1 to 1 µM | < 0.1 µM | 1 to 10 µM | 1 to 10 µM | 1 to 10 µM | 1 to 10 µM |
| C[C@@H]1CN(c2cnc3nc(-c4cc5cn(C)nc5cc4O)cc(C4CC4)c3c2)C[C@H](C)N1 [Compound 364, 5-{4-cyclopropyl-6-[(3R,5S)-3,5-dimethylpiperazin-1-yl]-1,8-naphthyridin-2-yl}-2-methylindazol-6-ol hydrochloride] | C (1000-9999 nM) | < 0.1 µM | 0.1 to 1 µM | < 0.1 µM | < 0.1 µM | < 0.1 µM | < 0.1 µM | 0.1 to 1 µM | 0.1 to 1 µM |
| Cc1c(O)c(-c2ccc3c(Cl)c(N4C[C@@H](C)N[C@@H](C)C4)cnc3n2)cc2cn(C)nc12 [Compound 390] | A (<100 nM) | 0.1 to 1 µM | < 0.1 µM | < 0.1 µM | < 0.1 µM | 1 to 10 µM | 1 to 10 µM | > 10 µM | 1 to 10 µM |
| Cc1c(O)c(-c2cc(Cl)c3cc(N4C[C@@H](C)NC5(CC5)C4)cnc3n2)cc2cn(C)nc12 [Compound 399] | B (100-1000 nM) | < 0.1 µM | < 0.1 µM | < 0.1 µM | < 0.1 µM | 1 to 10 µM | 1 to 10 µM | > 10 µM | > 10 µM |
| C[C@H]1CN(c2cnc3nc(-c4cc5cn(C)nc5cc4O)cc(Cl)c3c2)C[C@H](C)N1C [Compound 404, 5-{4-chloro-6-[(3S,5S)-3,4,5-trimethylpiperazin-1-yl]-1,8-naphthyridin-2-yl}-2-methylindazol-6-ol] | B (100-1000 nM) | 0.1 to 1 µM | 0.1 to 1 µM | 0.1 to 1 µM | < 0.1 µM | 1 to 10 µM | 1 to 10 µM | 1 to 10 µM | 1 to 10 µM |
| CN(c1cnc2nc(-c3cc(F)c4nn(C)cc4c3)ccc2c1)[C@H]1CCNC1 [Compound 367, 7-(7-fluoro-2-methylindazol-5-yl)-N-methyl-N-[(3S)-pyrrolidin-3-yl]-1,8-naphthyridin-3-amine] | C (1000-9999 nM) | 1 to 10 µM | 1 to 10 µM | 1 to 10 µM | 0.1 to 1 µM | > 10 µM | > 10 µM | > 10 µM | > 10 µM |
| C[C@H]1CN(c2cnc3nc(-c4cc5cn(C)nc5cc4O)cc(Cl)c3c2)CC2(CC2)N1 [Compound 379] | B (100-1000 nM) | 0.1 to 1 µM | 0.1 to 1 µM | 0.1 to 1 µM | < 0.1 µM | 1 to 10 µM | 1 to 10 µM | 1 to 10 µM | > 10 µM |
| COc1cc(-c2cc3cn(C)nc3c(C)c2O)nc2ncc(N3CCNCC3)cc12 [Compound 152, 5-(4-methoxy-6-(piperazin-1-yl)-1,8-naphthyridin-2-yl)-2,7-dimethyl-2H-indazol-6-ol 2,2,2-trifluoroacetate] | B (100-1000 nM) | 0.1 to 1 µM | 0.1 to 1 µM | 0.1 to 1 µM | < 0.1 µM | 0.1 to 1 µM | 0.1 to 1 µM | 1 to 10 µM | 1 to 10 µM |
| CN(C)C1CCN(c2ccc3nc(-c4cc5cn(C)nc5c(F)c4O)cnc3c2)CC1 [Compound 360, 5-{6-[4-(dimethylamino)piperidin-1-yl]quinoxalin-2-yl}-7-fluoro-2-methylindazol-6-ol] | B (100-1000 nM) | < 0.1 µM | 0.1 to 1 µM | < 0.1 µM | < 0.1 µM | 0.1 to 1 µM | 0.1 to 1 µM | > 10 µM | 1 to 10 µM |
| Cc1c(O)c(-c2cc(Cl)c3cc(N4C[C@H](C)NC5(CC5)C4)cnc3n2)cc2cn(C)nc12 [Compound 398] | B (100-1000 nM) | < 0.1 µM | < 0.1 µM | < 0.1 µM | < 0.1 µM | 0.1 to 1 µM | 0.1 to 1 µM | 0.1 to 1 µM | > 10 µM |
| Cc1cn2cc(-c3ccc4cc(N(C)[C@@H]5CCNC5)cnc4n3)cc(F)c2n1 [Compound 361, 7-{8-fluoro-2-methylimidazo[1,2-a]pyridin-6-yl}-N-methyl-N-[(3R)-pyrrolidin-3-yl]-1,8-naphthyridin-3-amine hydrochloride] | C (1000-9999 nM) | > 10 µM | > 10 µM | > 10 µM | > 10 µM | > 10 µM | > 10 µM | > 10 µM | > 10 µM |
| CN(c1cnc2nc(-c3cc(F)c4nn(C)cc4c3)ccc2c1)[C@@H]1CCNC1 [Compound 366, 7-(7-fluoro-2-methylindazol-5-yl)-N-methyl-N-[(3R)-pyrrolidin-3-yl]-1,8-naphthyridin-3-amine] | C (1000-9999 nM) | 1 to 10 µM | 0.1 to 1 µM | 1 to 10 µM | 0.1 to 1 µM | > 10 µM | > 10 µM | > 10 µM | > 10 µM |
